Test system: hepatic DEPs
Test: Hepatic differentially expressed proteins (TMT LC-MS/MS) in treated TX mice
Assay type: in vivo, mouse
Experimental: In order to confirm the positive role of TDMQ20 in the treatment of TX mice, we performed proteomic experiments. Samples from three mice of each group were depicted in Table 1, The samples were treated with TMT (Tandem Mass Tag) and detected by quantitative LC-MS/MS, then the data were analyzed with ProteomeDiscoverer 2.4.1.15 (ThermoFisher Scientific). Confidence proteins were screened according to the criteria of Sequest program score greater than 0 and number of unique peptides greater than or equal to 1, and blank values were removed.
Other differentially expressed proteins (DEPs) were screened at p<0.05 in the WD mouse group compared to the control group. […] Results are reported in Table 3 and 4 for hepatic and serum proteins, respectively.

[1] = liver, 25 mg/kg/day, DEP down-regulated in WD
[2] = liver, 25 mg/kg/day, DEP up-regulated in WD
[3] = liver, 50 mg/kg/day, DEP down-regulated in WD
[4] = liver, 50 mg/kg/day, DEP up-regulated in WD

For `CN(C)CCNCCc1ccc2c(Cl)cc(Cl)c(N)c2n1` [TDMQ20], the “hepatic DEPs TDMQ20-H/control ratio” value (TDMQ20 50 mg/kg) was about 1, the “hepatic DEPs after treatment” value (TDMQ20 at 25 or 50 mg/kg) was “reversed to normal values” and the “TDMQ20-M/control fold change: 2-Oxo-4-hydroxy-4-caboxy-5-ureidoimidazoline decarboxylase (Urad)” value [1] was 0.93. The “TDMQ20-M/control fold change: ATP-citrate synthase (Acly)” value [1] was 0.86, the “TDMQ20-M/control fold change: Alcohol deshydrogenase class-3 (Adh5)” value [1] was 0.89 and the “TDMQ20-M/control fold change: Aspartate-tRNA ligase, cytoplasmic (Dars1)” value [1] was 1.03. The “TDMQ20-M/control fold change: Charged multivesicular body protein 7 (Chmp7)” value [1] was 1.04, the “TDMQ20-M/control fold change: Cytochrome P450 2C70 (Cyp2c70)” value [1] was 0.85 and the “TDMQ20-M/control fold change: Desmin (Des)” value [1] was 0.88. The “TDMQ20-M/control fold change: Mesencephalic astrocyte-derived neurotrophic factor (Manf)” value [1] was 0.94, the “TDMQ20-M/control fold change: Nicotinamide/nicotinic acid mononucleotide adenylyltransferase 3 (Nmnat3)” value [1] was 0.97 and the “TDMQ20-M/control fold change: Progranulin (Gm)” value [1] was 1.05. For the same compound, the “TDMQ20-M/control fold change: Putative phospholipase B-like 2 (Plbd2)” value [1] was 0.98, the “TDMQ20-M/control fold change: Pyridoxine-5′-phosphate oxidase (Pnpo)” value [1] was 1.01 and the “TDMQ20-M/control fold change: Ribosome biogenesis protein BOP1 (Bop1)” value [1] was 1.08. The “TDMQ20-M/control fold change: Triosephosphate isomerase (Tpi1)” value [1] was 0.85, the “TDMQ20-M/control fold change: 28 kDa heat- and acid-stable phosphoprotein (Pdap1)” value [2] was 1.15 and the “TDMQ20-M/control fold change: AN1-type zinc finger protein 6 (Zfand6)” value [2] was 1.09. The “TDMQ20-M/control fold change: ATP synthase subunit a (Mtatp6)” value [2] was 1.04, the “TDMQ20-M/control fold change: Afadin (Afdn)” value [2] was 1.07 and the “TDMQ20-M/control fold change: Agmatinase, mitochondrial (Agmat)” value [2] was 1.15. For the same compound, the “TDMQ20-M/control fold change: Alanine glyoxylate aminotransferase (Agxt)” value [2] was 1.18, the “TDMQ20-M/control fold change: Alpha-1-antitrypsin-1-2 (Serpina1b)” value [2] was 1.09 and the “TDMQ20-M/control fold change: Cyclin-dependent kinase inhibitor 1B (Cdkn1b)” value [2] was 1.13. For the same compound, the “TDMQ20-M/control fold change: Epsin-1 (Epn1)” value [2] was 1.05, the “TDMQ20-M/control fold change: Exosome complex exonuclease RRP44 (Dis3)” value [2] was 1.16 and the “TDMQ20-M/control fold change: Histone H2A.V” value [2] was 1.14. The “TDMQ20-M/control fold change: Histone H2B type 1-H (H2bc9)” value [2] was 1.05, the “TDMQ20-M/control fold change: Histone H4 (H4c16)” value [2] was 1.12 and the “TDMQ20-M/control fold change: Mitochondrial dicarboxylase carrier (Slc25a10)” value [2] was 1.10. The “TDMQ20-M/control fold change: Mitochondrial outer membrane protein SLC25A46 (Slc25a46)” value [2] was 1.10, the “TDMQ20-M/control fold change: NADPH adrenodoxin oxidoreductase, mitochondrial (Fdxr)” value [2] was 1.10 and the “TDMQ20-M/control fold change: OCIA domain-containing protein 1 (Ociad1)” value [2] was 1.14. The “TDMQ20-M/control fold change: PRKC apoptosis WT1 regulator protein (Pawr)” value [2] was 1.10, the “TDMQ20-M/control fold change: Peroxisomal membrane protein-2 (Pxmp2)” value [2] was 1.14 and the “TDMQ20-M/control fold change: Probable ATP-dependent RNA helicase DDX17 (Ddx17)” value [2] was 1.01. For the same compound, the “TDMQ20-M/control fold change: Protein Hook homolog 1 (Hook1)” value [2] was 1.07, the “TDMQ20-M/control fold change: Protein LYRIC (Mtdh)” value [2] was 0.85 and the “TDMQ20-M/control fold change: Protein scribble homolog (Scrib)” value [2] was 1.07. For the same compound, the “TDMQ20-M/control fold change: Protein-glutamine gamma-glutamyltransferase K (Tgm1)” value [2] was 0.90, the “TDMQ20-M/control fold change: Regucalcin (Rgn)” value [2] was 1.07 and the “TDMQ20-M/control fold change: Ribonuclease P protein subunit p30 (Rpp30)” value [2] was 1.20. For the same compound, the “TDMQ20-M/control fold change: SET nuclear proto-oncogene (Set)” value [2] was 0.95, the “TDMQ20-M/control fold change: Sideroflexin-5 (Sfxn5)” value [2] was 1.06 and the “TDMQ20-M/control fold change: Zinc transporter 10 (Slc30a10)” value [2] was 0.94. For the same compound, the “TDMQ20-H/control fold change: 2-Oxo-4-hydroxy-4-caboxy-5-ureidoimidazoline decarboxylase (Urad)” value [3] was 0.96, the “TDMQ20-H/control fold change: ATP-citrate synthase (Acly)” value [3] was 0.97 and the “TDMQ20-H/control fold change: Alcohol deshydrogenase class-3 (Adh5)” value [3] was 0.86. The “TDMQ20-H/control fold change: Aspartate-tRNA ligase, cytoplasmic (Dars1)” value [3] was 1.13, the “TDMQ20-H/control fold change: Charged multivesicular body protein 7 (Chmp7)” value [3] was 0.94 and the “TDMQ20-H/control fold change: Cytochrome P450 2C70 (Cyp2c70)” value [3] was 0.88. For the same compound, the “TDMQ20-H/control fold change: Desmin (Des)” value [3] was 0.88, the “TDMQ20-H/control fold change: Mesencephalic astrocyte-derived neurotrophic factor (Manf)” value [3] was 0.91 and the “TDMQ20-H/control fold change: Nicotinamide/nicotinic acid mononucleotide adenylyltransferase 3 (Nmnat3)” value [3] was 0.94. For the same compound, the “TDMQ20-H/control fold change: Progranulin (Gm)” value [3] was 1.04, the “TDMQ20-H/control fold change: Putative phospholipase B-like 2 (Plbd2)” value [3] was 0.99 and the “TDMQ20-H/control fold change: Pyridoxine-5′-phosphate oxidase (Pnpo)” value [3] was 0.90. The “TDMQ20-H/control fold change: Ribosome biogenesis protein BOP1 (Bop1)” value [3] was 0.97, the “TDMQ20-H/control fold change: Triosephosphate isomerase (Tpi1)” value [3] was 0.90 and the “TDMQ20-H/control fold change: 28 kDa heat- and acid-stable phosphoprotein (Pdap1)” value [4] was 1.10. The “TDMQ20-H/control fold change: AN1-type zinc finger protein 6 (Zfand6)” value [4] was 0.91, the “TDMQ20-H/control fold change: ATP synthase subunit a (Mtatp6)” value [4] was 0.91 and the “TDMQ20-H/control fold change: Afadin (Afdn)” value [4] was 1.05. For the same compound, the “TDMQ20-H/control fold change: Agmatinase, mitochondrial (Agmat)” value [4] was 1.01, the “TDMQ20-H/control fold change: Alanine glyoxylate aminotransferase (Agxt)” value [4] was 1.03 and the “TDMQ20-H/control fold change: Alpha-1-antitrypsin-1-2 (Serpina1b)” value [4] was 1.04. The “TDMQ20-H/control fold change: Cyclin-dependent kinase inhibitor 1B (Cdkn1b)” value [4] was 1.10, the “TDMQ20-H/control fold change: Epsin-1 (Epn1)” value [4] was 0.93 and the “TDMQ20-H/control fold change: Exosome complex exonuclease RRP44 (Dis3)” value [4] was 1.00. For the same compound, the “TDMQ20-H/control fold change: Histone H2A.V” value [4] was 1.19, the “TDMQ20-H/control fold change: Histone H2B type 1-H (H2bc9)” value [4] was 1.07 and the “TDMQ20-H/control fold change: Histone H4 (H4c16)” value [4] was 1.15. The “TDMQ20-H/control fold change: Mitochondrial dicarboxylase carrier (Slc25a10)” value [4] was 1.00, the “TDMQ20-H/control fold change: Mitochondrial outer membrane protein SLC25A46 (Slc25a46)” value [4] was 1.11 and the “TDMQ20-H/control fold change: NADPH adrenodoxin oxidoreductase, mitochondrial (Fdxr)” value [4] was 1.04. For the same compound, the “TDMQ20-H/control fold change: OCIA domain-containing protein 1 (Ociad1)” value [4] was 1.08, the “TDMQ20-H/control fold change: PRKC apoptosis WT1 regulator protein (Pawr)” value [4] was 1.18 and the “TDMQ20-H/control fold change: Peroxisomal membrane protein-2 (Pxmp2)” value [4] was 0.98. The “TDMQ20-H/control fold change: Probable ATP-dependent RNA helicase DDX17 (Ddx17)” value [4] was 1.11, the “TDMQ20-H/control fold change: Protein Hook homolog 1 (Hook1)” value [4] was 0.94 and the “TDMQ20-H/control fold change: Protein LYRIC (Mtdh)” value [4] was 1.06. The “TDMQ20-H/control fold change: Protein scribble homolog (Scrib)” value [4] was 1.09, the “TDMQ20-H/control fold change: Protein-glutamine gamma-glutamyltransferase K (Tgm1)” value [4] was 0.84 and the “TDMQ20-H/control fold change: Regucalcin (Rgn)” value [4] was 0.91. The “TDMQ20-H/control fold change: Ribonuclease P protein subunit p30 (Rpp30)” value [4] was 1.20, the “TDMQ20-H/control fold change: SET nuclear proto-oncogene (Set)” value [4] was 1.01 and the “TDMQ20-H/control fold change: Sideroflexin-5 (Sfxn5)” value [4] was 0.96. For the same compound, the “TDMQ20-H/control fold change: Zinc transporter 10 (Slc30a10)” value [4] was 0.9.
